Assay results taken from patent publication US20260207569A1, “LPA1 ANTAGONISTS FOR TREATING INTERSTITIAL LUNG DISEASE” (Bristol-Myers Squibb Company, priority 2022, published 2026).

How the values were obtained:
Format in all cases: in vivo, human
[1] = Phase 1 Part B multiple ascending dose (MAD), blood pressure, healthy participants
Description: (§1) The study was performed in 3 parts in 112 healthy male and female participants, including 24 Japanese participants. Female participants were to be not of childbearing potential. The present study was designed to evaluate the safety and tolerability, PK, and exploratory PD of an oral suspension of Compound A. Parts A and B (Cohort B1 only) enrolled healthy participants and was conducted at a site in The Netherlands and Part B (Cohort B2 to B5) enrolled healthy non-Japanese participants and was conducted at a site in the United Kingdom (UK). Part C enrolled healthy Japanese participants and was conducted at the same site in the UK.
Part B was a MAD study in a planned number of 6 sequential dose escalation cohorts (10 mg QD, 30 mg QD, 30 mg BID, 60 mg BID, 125 mg BID, and ≤250 mg BID) of 8 healthy participants (6 active+2 placebo) each, under fasted conditions. However, Cohort B6 (≤250 mg BID) was cancelled because sufficient safety and PK data had been obtained at doses up to 125 mg BID. Eligible participants received study drug (Compound A or placebo) administered orally for 14 days.
(§2) Physical examinations, vital sign measurements (including orthostasis testing in Cohort A6, Cohort B3 to B5, and C1 to C3 at selected time points), 12-lead electrocardiogram (ECG), and clinical laboratory evaluations were performed at selected times throughout the study. In addition, Holter monitoring was performed for the first 24 hours post dose on Day 1 in Part A (not in FE/pH cohort), and also for the first 24 hours post dose on Day 1 and Day 14 in Parts B and C. Participants were closely monitored for adverse events (AEs). Blood samples were collected for up to 14 days (follow-up visit) after (last) study drug administration for PK analysis. In addition, blood and urine were collected for exploratory biomarker assessments and for biobanking of samples for potential analyses. Urine was collected for potential PK analysis for up to 96 hours after a single dose of Compound A or placebo was administered in the SAD part, and for up to 24 hours after the first (morning) dose of study drug on Day 1 and for up to 24 hours after the last (morning) dose of study drug on Day 14 in the MAD parts.

[2] = Phase 1 Part A single ascending dose (SAD) and food effect/pH cohort, blood pressure and safety, healthy participants; conditions: for Time of maximum mean DBP reduction / Time of maximum mean SBP reduction: within 12 h post dose
Description: as §1
Part A was an SAD study in a planned number of 6 sequential dose escalation cohorts (3, 10, 30, 100, 150, or 250 mg) of 8 healthy participants (6 active+2 placebo) each, under fasted conditions. Eligible participants in Part A (excluding those in Cohort A7 [food effect (FE)/pH cohort]) received a single administration of study drug (Compound A or placebo) under fasted conditions. In Cohort A1 to Cohort A6, sentinel dosing was employed (1 active+1 placebo, followed after 48 hours by the remaining participants of the cohort [5 active+1 placebo]). […] In addition to the 6 ascending dose cohorts, a cohort of 6 healthy participants (Cohort A7; 6 active, 100 mg Compound A) was included to assess the effect of food and pH on the bioavailability of Compound A in a 3-period, open-label, fixed-sequence, crossover design (FE/pH cohort).
as §2

[3] = system: participants with PPF; assay: Phase 2 PPF cohort efficacy: rate of FVC decline (% predicted) / FVC to Week 26; conditions: for Mean observed change from baseline in ppFVC and FVC vs placebo: to week 26
Description: A total of 123 participants with PPF were randomized. Participants (age ≥21 years) were randomized (1:1:1) to receive 30 mg or 60 mg Compound A or PBO twice daily for 26 weeks. […] Immunosuppressive medications (mycophenolate mofetil, mycophenolic acid, azathioprine and/or tacrolimus) were permitted only if dosing is stable for ≥6 months prior to screening. If receiving antifibrotic agents pirfenidone or nintedanib, patients had to receive a stable dosage for ≥3 months prior to screening and during the screening period; if not receiving pirfenidone or nintedanib, patients had to be naive to both drugs or not have received either 4 weeks prior to Day 1. A total of 47 (38.2%) subjects were receiving antifibrotic treatment (with or without immunosuppression therapy). Of those subjects, 34 were being treated with nintedanib and 13 with pirfenidone. Participants were stratified by usual interstitial pneumonia (UIP) pattern (presence versus absence) and background therapy (antifibrotics +/−ILD-targeted immunosuppression versus ILD-targeted immunosuppression alone versus none). UIP pattern was present in 52% of subjects and unclassifiable ILD was he most common disease categorization.
The study was not powered to detect statistical significance (no formal testing). No target effect size was defined in the study design. There were two estimand approaches for analysis: • Treatment Policy: Effect of treatment with dose reduction as part of treatment regimen. • While-On Treatment: Effect of treatment without dose reduction.
The main efficacy endpoint, rate of FVC decline (in % of predicted) from baseline to wk-26 in the PPF cohort, was estimated using a linear mixed-effects model utilizing all FVC timepoints. It was analyzed under a primary estimand (utilizing all data, treatment policy strategy), and under supplementary estimand (utilizing all data up to the point of dose reduction, while-on-treatment strategy). Analysis was performed in the overall population as well as in sub-groups by 1) background anti-fibrotic treatment or not 2) UIP radiographic pattern (presence or not). The mean baseline ppFVC was 66.7% for the PPF cohort.

[4] = 100 mg fasted + famotidine (A7)

Question: For `CCCN(C)C(=O)OCc1c(-c2ccc(O[C@H]3CCC[C@H](C(=O)O)C3)c(C)n2)nnn1C` [Compound A, (1S,3S)-3-((2-methyl-6-(1-methyl-5-(((methyl(propyl)carbamoyl)-oxy)methyl)-1H-1,2,3-triazol-4-yl)pyridin-3-yl)oxy)cyclohexane-1-carboxylic acid], which Mean DBP ([1]; MAD 60 mg BID, D 14 320 h) is on record?
Answer: 63 mmHg

Question: What about the Mean DBP ([1]; MAD 125 mg BID, D 15 336 h) of the same compound?
Answer: 63 mmHg

Question: What about the “Reductions in BP vs placebo” value ([1]; MAD BID groups) of the same compound?
Answer: no clear differences between placebo and the Compound A groups

Question: And the “Reductions in mean SBP and DBP” value ([1]; MAD QD groups)?
Answer: reductions generally occurred in a Compound A dose-dependent manner

Question: What about the “Time of maximum mean DBP reduction” value ([2]; 100 mg fasted (A7)) of the same compound?
Answer: 5 h

Question: And the “Time of maximum mean SBP reduction” value ([2]; 100 mg fasted (A7))?
Answer: 8 h

Question: What about the “Time of maximum mean DBP reduction” value [2, 4] of the same compound?
Answer: 6 h

Question: And the “Time of maximum mean SBP reduction” value [2, 4]?
Answer: 6 h

Question: And the “Time of maximum mean DBP reduction” value ([2]; 100 mg fed (A7))?
Answer: 5 h

Question: What about the “Time of maximum mean SBP reduction” value ([2]; 100 mg fed (A7)) of the same compound?
Answer: 6 h

Question: What about the “Time of maximum mean DBP reduction” value ([2]; SAD 10 mg (A2)) of the same compound?
Answer: 6 h

Question: And the “Time of maximum mean SBP reduction” value ([2]; SAD 10 mg (A2))?
Answer: 8 h

Question: And the “Time of maximum mean DBP reduction” value ([2]; SAD 30 mg (A3))?
Answer: 5 h

Question: And the “Time of maximum mean SBP reduction” value ([2]; SAD 30 mg (A3))?
Answer: 4 h

Question: And the “Time of maximum mean DBP reduction” value ([2]; SAD 100 mg (A4))?
Answer: 5 h

Question: What about the “Time of maximum mean SBP reduction” value ([2]; SAD 100 mg (A4)) of the same compound?
Answer: 2 h

Question: And the “Time of maximum mean DBP reduction” value ([2]; SAD 150 mg (A5))?
Answer: 6 h

Question: What about the “Time of maximum mean SBP reduction” value ([2]; SAD 150 mg (A5)) of the same compound?
Answer: 6 h

Question: What about the “Effect on SBP and DBP” value ([2]; SAD cohorts) of the same compound?
Answer: decreased SBP and DBP dose dependently, reversibly, and mostly asymptomatically with minimal effect on heart rate

Question: What about the Safety and tolerability ([2]; single and multiple dose oral administration, healthy participants) of the same compound?
Answer: generally safe and well tolerated

Question: What about the “Time after dosing of maximum BP reduction” value ([2]; single and multiple dose, healthy participants) of the same compound?
Answer: 4 to 8 h

Question: And the “Treatment differences by UIP pattern” value ([3]; PPF cohort)?
Answer: treatment differences were seen in the PPF cohort independent of UIP pattern presence or absence

Question: What about the “Treatment differences in rates of change in ppFVC by background antifibrotic use” value ([3]; PPF cohort) of the same compound?
Answer: consistent with or without background antifibrotic use

Question: What about the “Dose response of efficacy” value ([3]; PPF cohort, 30 mg and 60 mg BID) of the same compound?
Answer: Clear dose response

Question: What about the “Consistency of efficacy across sub-groups” value ([3]; PPF cohort, background antifibrotics, UIP pattern) of the same compound?
Answer: Efficacy consistent in all sub-groups

Question: What about the “Rate of decline in FVC (% Predicted), slope” value (“Rate … (% Predicted), slope” below) ([3]; PPF, 30 mg BID, UIP absent, supplementary estimand) of the same compound?
Answer: −2.24 % Predicted

Question: And the “Rate … (% Predicted), slope” value ([3]; PPF, 30 mg BID, UIP present, primary estimand)?
Answer: −3.07 % Predicted

Question: And the “Rate … (% Predicted), slope” value ([3]; PPF, 30 mg BID, not receiving antifibrotic treatment, supplementary estimand)?
Answer: −2.83 % Predicted

Question: And the “Rate … (% Predicted), slope” value ([3]; PPF, 30 mg BID, overall population, primary estimand (treatment policy), 26 weeks)?
Answer: −2.7 % Predicted

Question: What about the “Rate … (% Predicted), slope” value ([3]; PPF, 30 mg BID, receiving antifibrotic treatment, supplementary estimand) of the same compound?
Answer: −1.8 % Predicted

Question: And the “Mean observed change from baseline in ppFVC and FVC vs placebo” value ([3]; PPF, 30 mg BID)?
Answer: shows more significant improvement after week 20

Question: And the “Rate … (% Predicted), slope” value ([3]; PPF, 60 mg BID, UIP absent, supplementary estimand)?
Answer: −0.7 % Predicted

Question: What about the “Rate … (% Predicted), slope” value ([3]; PPF, 60 mg BID, UIP present, primary estimand) of the same compound?
Answer: −1.46 % Predicted

Question: And the “Rate … (% Predicted), slope” value ([3]; PPF, 60 mg BID, not receiving antifibrotic treatment, supplementary estimand)?
Answer: −1.56 % Predicted

Question: What about the “Rate … (% Predicted), slope” value ([3]; PPF, 60 mg BID, overall population, supplementary estimand (while on treatment), 26 weeks) of the same compound?
Answer: −1.3 % Predicted

Question: And the “Rate … (% Predicted), slope” value ([3]; PPF, 60 mg BID, receiving antifibrotic treatment, supplementary estimand)?
Answer: −1.1 % Predicted

Question: What about the “Mean observed change from baseline in ppFVC and FVC vs placebo” value ([3]; PPF, 60 mg BID) of the same compound?
Answer: maintains the improvement over placebo through the end of week 26

Question: What about the “Slope difference, 60 mg − placebo” value ([3]; PPF, UIP absent, supplementary estimand) of the same compound?
Answer: 3.8 % Predicted

Question: And the “Slope difference, 30 mg − placebo” value ([3]; PPF, UIP present, primary estimand)?
Answer: 0.88 % Predicted

Question: And the “Slope difference (S.E.), 60 mg − placebo” value ([3]; PPF, overall population, primary estimand (treatment policy))?
Answer: 3.2 % Predicted

Question: What about the “Slope difference (S.E.), 60 mg − placebo” value ([3]; PPF, overall population, supplementary estimand (while on treatment)) of the same compound?
Answer: 2.9 % Predicted
